Data published in PubChem BioAssay AID248 (DTP/NCI, 2004).
Inconclusive results and toxic doses are left out. No stated cut-off is given here; in the data, active means T/C of 150% or more; inactive means T/C below 125%.

Test system: L1210 leukemia ip in BDF1 mice, survival T/C
Test: NCI In Vivo Anticancer Drug Screen. Data for tumor model L1210 Leukemia (intraperitoneal) in B6D2F1 (BDF1) mice
Details: endpoint: mean survival time, higher = longer survival
How it was run: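 Ratio derived from survival: compound-dosed mice over vehicle-dosed mice, all bearing a transplantable tumor.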

[1] = dose: 100.0 mg/kg/injection, schedule: Q04DX003 (ip), vehicle: Klucel (hydroxypropylcellulose) (HPC)
[2] = dose: 200.0 mg/kg/injection, schedule: Q04DX003 (ip), vehicle: Klucel (hydroxypropylcellulose) (HPC)
[3] = dose: 400.0 mg/kg/injection, schedule: Q04DX003 (ip), vehicle: Klucel (hydroxypropylcellulose) (HPC)
[4] = dose: 25.0 mg/kg/injection, schedule: Q04DX002 (ip), vehicle: Klucel (hydroxypropylcellulose) (HPC)
[5] = dose: 50.0 mg/kg/injection, schedule: Q04DX002 (ip), vehicle: Klucel (hydroxypropylcellulose) (HPC)
[6] = dose: 100.0 mg/kg/injection, schedule: Q04DX002 (ip), vehicle: Klucel (hydroxypropylcellulose) (HPC)

Measured: T/C

O=C(c1ccc(Cl)cc1)C1Cc2ccccc2C1=O (stereo not given)
inactive: dose: 100.0 mg/kg/injection, schedule: Q01DX009 (ip), vehicle: Klucel (hydroxypropylcellulose) (HPC) 97 % of control | [1] 101 % of control | dose: 200.0 mg/kg/injection, schedule: Q01DX009 (ip), vehicle: Klucel (hydroxypropylcellulose) (HPC) 94 % of control | [2] 101 % of control | dose: 400.0 mg/kg/injection, schedule: Q01DX009 (ip), vehicle: Klucel (hydroxypropylcellulose) (HPC) 91 % of control | [3] 97 % of control

CCN(CC)S(=O)(=O)c1ccc(Nc2nc(Cl)nc(Cl)n2)cc1
inactive: dose: 12.5 mg/kg/injection, schedule: Q01DX009 (ip), vehicle: Klucel (hydroxypropylcellulose) (HPC) 113 % of control | dose: 12.5 mg/kg/injection, schedule: Q04DX003 (ip), vehicle: Klucel (hydroxypropylcellulose) (HPC) 102 % of control | dose: 25.0 mg/kg/injection, schedule: Q01DX009 (ip), vehicle: Klucel (hydroxypropylcellulose) (HPC) 97 % of control | dose: 25.0 mg/kg/injection, schedule: Q04DX003 (ip), vehicle: Klucel (hydroxypropylcellulose) (HPC) 100 % of control | dose: 50.0 mg/kg/injection, schedule: Q01DX009 (ip), vehicle: Klucel (hydroxypropylcellulose) (HPC) 113 % of control | dose: 50.0 mg/kg/injection, schedule: Q04DX003 (ip), vehicle: Klucel (hydroxypropylcellulose) (HPC) 95 % of control

CC1(C)CC(=O)C(C)(C)C(=O)C1 (tested in a mixture with another compound)
inactive: [4] 102 % of control | [5] 96 % of control | [6] 108 % of control

O=C(COc1ccccc1)Nc1ccccc1C(=O)O
inactive: dose: 100.0 mg/kg/injection, schedule: Q01DX001 (ip), vehicle: gum acacia 97 % of control | dose: 200.0 mg/kg/injection, schedule: Q01DX001 (ip), vehicle: gum acacia 90 % of control | dose: 400.0 mg/kg/injection, schedule: Q01DX001 (ip), vehicle: gum acacia 90 % of control

COc1cccc2c1C(=O)c1c(O)c3c(c(O)c1C2=O)C[C@@](O)(/C(C)=N/NC(N)=S)C[C@@H]3OC1CC(N)C(O)C(C)O1 (stereo not given in full)
inactive: dose: 0.25 mg/kg/injection, schedule: Q04DX003 (ip), vehicle: water 102 % of control | dose: 0.5 mg/kg/injection, schedule: Q04DX003 (ip), vehicle: water 110 % of control | dose: 1.0 mg/kg/injection, schedule: Q01DX009 (ip), vehicle: water 121 % of control | dose: 1.0 mg/kg/injection, schedule: Q04DX003 (ip), vehicle: water 107 % of control | dose: 2.0 mg/kg/injection, schedule: Q01DX009 (ip), vehicle: water 119 % of control | dose: 2.0 mg/kg/injection, schedule: Q04DX003 (ip), vehicle: water 104 % of control | dose: 4.0 mg/kg/injection, schedule: Q04DX003 (ip), vehicle: water 114 % of control | dose: 7.0 mg/kg/injection, schedule: Q04DX003 (ip), vehicle: water 122 % of control | dose: 8.0 mg/kg/injection, schedule: Q04DX003 (ip), vehicle: water 107 % of control | dose: 10.6 mg/kg/injection, schedule: Q04DX003 (ip), vehicle: water 120 % of control | dose: 24.0 mg/kg/injection, schedule: Q04DX003 (ip), vehicle: water 122 % of control | dose: 32.0 mg/kg/injection, schedule: Q01DX009 (ip), vehicle: water 124 % of control

FC(F)(F)c1cccc(N2CCNCC2)c1
inactive: dose: 75.0 mg/kg/injection, schedule: Q01DX001 (ip), vehicle: acid diluted with saline 90 % of control

CCCCSc1ncc(C)c(NC)n1
inactive: dose: 25.0 mg/kg/injection, schedule: Q01DX Z (ip), vehicle: methylcellulose (MC) 92 % of control | dose: 50.0 mg/kg/injection, schedule: Q01DX Z (ip), vehicle: methylcellulose (MC) 95 % of control

COC1OC(COC(=O)c2ccc([N+](=O)[O-])cc2)C2SC12 (stereo not given)
inactive: [1] 104 % of control | [2] 97 % of control | [3] 97 % of control

c1ccc(Nc2nc(Nc3ccccc3)nc(Nc3ccccc3)n2)cc1
inactive: [4] 92 % of control | [5] 92 % of control | [6] 88 % of control

COc1ccccc1CN1CCCN(Cc2ccccc2OC)C1c1cccc(OC)c1O
inactive: dose: 50.0 mg/kg/injection, schedule: Q01DX001 (ip), vehicle: saline 95 % of control | dose: 100.0 mg/kg/injection, schedule: Q01DX001 (ip), vehicle: saline 101 % of control | dose: 200.0 mg/kg/injection, schedule: Q01DX001 (ip), vehicle: saline 93 % of control | dose: 400.0 mg/kg/injection, schedule: Q01DX001 (ip), vehicle: saline 93 % of control

O=P(NC1CCCCC1)(Oc1ccccc1)Oc1ccccc1
inactive: dose: 50.0 mg/kg/injection, schedule: Q01DX001 (ip), vehicle: carboxymethylcellulose (CMC) 95 % of control | dose: 100.0 mg/kg/injection, schedule: Q01DX001 (ip), vehicle: carboxymethylcellulose (CMC) 92 % of control | dose: 100.0 mg/kg/injection, schedule: Q04DX003 (ip), vehicle: saline with Tween-80 102 % of control | dose: 200.0 mg/kg/injection, schedule: Q01DX001 (ip), vehicle: carboxymethylcellulose (CMC) 97 % of control | dose: 200.0 mg/kg/injection, schedule: Q04DX003 (ip), vehicle: saline with Tween-80 97 % of control | dose: 400.0 mg/kg/injection, schedule: Q01DX001 (ip), vehicle: carboxymethylcellulose (CMC) 97 % of control | dose: 400.0 mg/kg/injection, schedule: Q04DX003 (ip), vehicle: saline with Tween-80 100 % of control
